Test system: LPS-induced iNOS-dependent NO production
Experiment: LPS-induced NO production
Type: cell-based, murine
Conditions: Mus musculus, read-out: IC50 (µM) in NOS

Structure (SMILES) | IC50
C=C(C)C#Cc1c(C)c(OC)c(OC)c2c1OCO2 [Compound 2, Benzocamphorin B] | 12.1 µM
COc1cc(C)c(OC)c2c1OCO2 [Compound 8, 4,7-dimethoxy-5-methyl-1,3-benzodioxole] | 29.1 ± 4.4 µM
C=C(CC[C@@H](C)[C@H]1CC[C@H]2C3=C(C(=O)C[C@]12C)[C@@]1(C)CC[C@@H](O)[C@](C)(O)[C@@H]1C[C@@H]3O)C(C)C(=O)O (stereo partly shown) [Compound 32, antcin K] | > 50 µM
CC(C)[C@@H](C)/C=C/[C@@H](C)[C@H]1CC[C@@H]2[C@]1(C)CC[C@H]1[C@]23C=C[C@]2(C[C@@H](O)CC[C@]12C)OO3 [Compound 37, ergosterol peroxide] | 6.3 ± 1.8 µM

From article PMC3014437 (Bioorganic & medicinal chemistry, 2010)
